From patent US20020193319A1, “Use of EGF genistein to prevent development of EGF-receptor expressing cancers” (Parker Hughes Institute, priority 1999, published 2002) come the findings set out here.

For series [1], the system named is MDA-MB-231 cells. Nature of the series: FACS MC540/propidium iodide apoptosis assay. The settings on record: 24 hours. In kind it is cell-based, human. The protocol:
Fluorescence activated cell sorting (FACS) was used to sort MDA-MB-231 cells (breast cancer cells expressing EGF-Rc). The cells were treated with either PBS EFG-Genistein (0.1, 1, and 10 μM) or unconjugated Geninstein (1, 10, and 100 μM) and incubated for 24 hours. The cells were then stained with MC-540 and propidium iodide. Single MC540 fluorescence (S-MC540) indicates the cell is at an early stage of apoptosis. Dual MC540/propidium iodide fluorescence (D-MC540/PI) indicates the cell is at an advanced stage of apoptosis. The total apoptotic fraction (TAF) is calculated as the percentage of MC540 fluorescent cells plus the percentage of MC540/propidium iodide double fluorescent cells.

Series [2] relates to human breast cancer (MDA-MB-231) xenografts. In kind it is in vivo. Particulars: 100 μg/kg/day intraperitoneally for 10 days, followed 20 days, vs PBS or unconjugated Genistein. The procedure:
The tumor diameter was determined daily for 20 days from the start of therapy. Control mice were treated with 0.2 ml of PBS for 10 consecutive days or unconjugated Genistein at a concentration of 500 μg/kg/day for 10 days. P values were determined using Student's t test.

For series [3], the system named is Neu mediated mammary tumors. Nature of the series: Prevention of spontaneous breast cancer in Neu/erbB2 transgenic mice. The series is classed as in vivo. The procedure:
Neu/erbB2 transgenic mice were chosen because they overexpress the Neu protooncogene in their mammary glands.
As a control, 29 Neu/erbB2 mice were treated with PBS.

Like-named read-outs stand apart in the source and are kept apart here.

Take “EGF: Human epidermal growth factor, six kilodalton 53 amino acid single-chain polypeptide”: the “% D-MC540/PI (Dual MC540/propidium iodide, advanced stage of apoptosis)” value in series [1] (1 μM) came to 0.8%; in series [1] (10 μM), 1.2%; in series [1] (100 μM), 2.0%. The “% S-MC540 (Single MC540, early stage of apoptosis)” value in series [1] (1 μM) is listed as 5.5%; in series [1] (10 μM), 9.5%; in series [1] (100 μM) it was 13.5%. For the same substance, the “% TAF (total apoptotic fraction: Single MC540 plus Dual MC540/propidium iodide)” value in series [1] (1 μM) is listed as 6.3%; in series [1] (10 μM), 10.7%; in series [1] (100 μM), 15.5%.

As for “EGF-Genistein: Genistein conjugated to epidermal growth factor (EGF), prepared as in Example 1 of U.S. Pat. No. 5,911,995”, the “tumor progression (tumor diameter)” value is “reversed” in series [2] (0.5 cm xenograft, FIG. 3A) and “slowed” in series [2] (1.0 cm xenograft, FIG. 3B). The side effects entry in series [3] (100 μg 1× per week for 10 weeks) is reported as “not associated with any side effects”. In addition, the “mice that developed breast cancer” value in series [3] (100 μg subcutaneously 1× per week for 10 weeks (5 mg/kg), from 4 months old, n=10) is on record as 40%. In addition, the “% S-MC540 (Single MC540, early stage of apoptosis)” value was 78.8% in series [1] (0.1 μM), 61.0% in series [1] (1 μM) and 42.2% in series [1] (10 μM). Moreover, the “% TAF (total apoptotic fraction: Single MC540 plus Dual MC540/propidium iodide)” value in series [1] (0.1 μM) is listed as 98.7%; in series [1] (1 μM) it was 97.6%; in series [1] (10 μM) it was 98.9%. Besides, the “% D-MC540/PI (Dual MC540/propidium iodide, advanced stage of apoptosis)” value in series [1] (1 μM) was 36.6%; in series [1] (10 μM), 56.7%.
